In paper PMC11475408, “All‐Inorganic Polyoxometalates Act as Superchaotropic Membrane Carriers” (Advanced Materials (Deerfield Beach, Fla.), 2023):

Key:
[1] = Hydrolysis/stability of POMs in buffer by NMR
Method: First, their long‐term (24 h and longer) fate in aqueous solution (slightly acidic and neutral) was investigated by applying the active NMR nuclei in their composition (Table S9 and Figures S24–S37, see the Supporting Information for details).
NMR-spectroscopic characterization of identity and stability
NMR spectroscopy for all POMs tested was performed under experimental conditions.

protamine = test: Supramolecular tandem assay of protamine hydrolysis (CX4/LCG); format: biochemical; details: time scale of transport experiments (10 min); 0.5 µM protamine, LCG/CX4 reporter, 10 mM Hepes pH 7.5; POM 0-500 µM
Method: 5. Hydrolytic activity of [(PZrW11)2]8−
We devised a supramolecular tandem enzyme assay[25-29] to check to which degree [(PZrW11)2]8− promotes peptide fragmentation, which has been reported to occur on a time scale of days at 60 °C.[30-31] Supramolecular tandem assay is a technique that allows real-time continuous monitoring of enzymatic activity by following a change in the concentration of a substrate or product as it competitively displaces a fluorescent reporter dye from the cavity of a macrocyclic host.
The assay therefore relies on the differential binding of the macrocycle with the fluorescent dye, the enzymatic substrate, and the corresponding product.
We selected p-sulfonatocalix[4]arene (CX4) as macrocyclic host and lucigenin (LCG) as fluorescent dye, since protamine […]
conversion can be directly monitored through a decrease in fluorescence. Trypsin, which is an endopeptidase that hydrolyzes peptide bonds on the C -terminal side of the amino acid arginine ,[32-33] was used as an example, for comparison.
Only minor hydrolysis (<10%) of protamine by the [(PZrW11)2]8− was observed on the time scale relevant for the transport […]

[2] = CF transport assay in EYPC⊃CF vesicles (carrier activity); format: biochemical; set-up: key to Carrier activity: ‐ – ‐: No detectable activity at pH 5.5 and 7.4
Description: The capability of POMs to act as membrane carriers was explored first in large unilamellar vesicles (LUVs) loaded with carboxyfluorescein (CF).^[ [54], [55] ^] We selected […] representative cationic peptides, heptaarginine (heptaArg), heptalysine (heptaLys), protamine, and polyarginine (polyArg), as test cargos. Inside the LUVs, the CF dye was encapsulated at self‐quenching concentrations. With a suitable carrier, heptaArg can be taken up into the vesicles, bind with entrapped CF, and shuttle back to the exterior, diluting the previously quenched CF, and thereby restoring its fluorescence (Figure 1c). In the time‐resolved fluorescence experiments (Figure 2a), to test whether a particular POM acts as molecular carrier, the CF emission was continuously monitored during the addition of the inorganic carrier (t = 60 s) and after injection of the impermeable selected cargo (t = 120 s). Toward the end of the experiment (t = 600 s), the surfactant Triton X‐100 was added to release all the entrapped CF and allow normalization of the intensity data.
A thin lipid film was prepared by evaporating a lipid solution of EYPC (egg yolk phosphatidylcholine, 25 mg) in CHCl3 (1 mL) with a stream of nitrogen and then dried in vacuo overnight. The dry film was rehydrated with 1 mL buffer (50 mM CF, 10 mM Hepes, pH 7.4 or 50 mM CF, 10 mM Tris, pH 7.4) for 30 min at room temperature, subjected to freeze–thaw cycles (7 times) and extrusions (15 times) through a polycarbonate membrane (pore size 100 nm). Extravesicular components were removed by size exclusion chromatography (NAP‐25 column Sephadex G‐25 DNA grade) with 10 mM Hepes, 107 mM NaCl, pH 7.4, or 10 mM Hepes, 107 mM NaCl, pH 7.4. Phospholipid concentration was calculated by the Stewart assay.^[ [81] ^]
Acidic vesicles were prepared analogously but the rehydration and elution buffer were 50 mM CF, 10 mM Mes, pH 5.5 and 10 mM Mes, 107 mM NaCl, pH 5.5. respectively.
Vesicles stock solutions (5–10 µL) were diluted with the corresponding buffer in a disposable plastic cuvette and gently stirred (total volume 2000 µL, final lipid concentration 13 µM). Carboxyfluorescein fluorescence was monitored at λ em = 517 nm (λ ex = 492 nm) as a function of time after addition of POMs at 60 s, analyte at 120 s and Triton X‐100 (24 µL 1.2% wt/vol) at 600 s to lyse the vesicles, for calibration. Fluorescence intensities were normalized to fractional emission as (1) It=It−I0/I∞−I0 where I 0 = I t before POM addition and […] after lysis. For Hill analysis, I t before lysis was defined as transport activity, Y, and plotted against POM concentration, c, and fitted to the Hill Equation (2), to afford the activity in absence of POM, Y 0, the maximal activity, Y max, the concentration needed to achieve 50% of maximal activity, EC 50, and the Hill coefficient, n (2) Y=Y0+Ymax−Y0/1+EC50/c^n
In the transport measurements, where different carriers (POMs) are tested with the same cargo, the activator efficiency (E) is determined by their capacity to transport the impermeable cargo to the intravesicular region and is characterized by Y max, its maximal activity, and EC 50, the effective activator concentration. An ideal carrier reaches high Y max at low EC 50. To count both factors, the activator efficiency is defined as (3) E=YmaxpEC50/f were pEC 50 is the negative logarithm of the EC 50, and f a scaling factor, which was set to 20.6 to calibrate the highest (previously known) activation efficiency, E, as 10.^[ [55] ^]

[3] = 3 mM POM, 10 mM Hepes pH 7.5, 31P NMR integration

% parent anion, Hepes pH 7.5 after 1 day [1, 3]: 99%
% parent anion, Hepes pH 7.5 freshly prepared [1, 3]: 99%
Hydrolysis/stability pH 7.5 ([1]; 10 mM Hepes or Tris, 107 mM NaCl, pH 7.4, NMR, long-term (24 h and longer)): Stable
Stability at pH 7.5 by NMR (in words) ([1]; Hepes or Tris-HCl pH 7.5, 27Al, 31P or 183W NMR, fresh and aged 1-3 days): remain unchanged
Substance: (Et2NH2)8[{α‐P^VW^VI 11O39Zr^IV(µ‐OH)(H2O)}2]·7H2O [[(PZrW11)2]^8‒]
Hydrolysis of protamine by the POM (protamine): < 10%
Carrier activity ([2]; EYPC vesicles, pH 5.5 and 7.4, cargos heptaArg, protamine, polyArg ([AlMo6]: heptaArg and protamine only)): ‐ – ‐ ^k)
Transport activity (in words) ([2]; EYPC⊃CF vesicles, neutral pH, carrier then cargo): neither transport activity nor membrane disruption was observed
